The values below come from patent US6504058B1 (priority 1997, dated 2003).

For experiment [1], the system named is Pyricularia oryzae. It counts as in vivo, Pyricularia oryzae (on rice seedlings). Particulars: 100 = 100% disease control, 0 = no control, # = significant activity.
Experiment [2] relates to Puccinia recondita. Put plainly: Test B: wheat leaf rust, preventive spray on wheat seedlings, disease rating. It counts as in vivo, Puccinia recondita (on wheat seedlings). Particulars: 200 ppm test suspension sprayed to run-off (equivalent to 500 g/ha) on wheat seedlings; 100 = 100% disease control, 0 = no control; # = significant activity. The source says: (§1) Test compounds were first dissolved in acetone in an amount equal to 3% of the final volume and then suspended at a concentration of 200 ppm in purified water containing 250 ppm of the surfactant Trem® 014 (polyhydric alcohol esters). The resulting test suspensions were then used in the following test. Spraying these 200 ppm test suspensions to the point of run-off on the test plants is the equivalent of a rate of 500 g/ha.
The test suspension was sprayed to the point of run-off on wheat seedlings. The following day the seedlings were inoculated with a spore suspension of Puccinia recondita (the causal agent of wheat leaf rust) and incubated in a saturated atmosphere at 20° C. for 24 h, and then moved to a growth chamber at 20° C. for 6 days, after which disease ratings were made.
(§2) Results for Tests A-E are given in Table A. In the table, a rating of 100 indicates 100% disease control and a rating of 0 indicates no disease control (relative to the controls). A dash (-) indicates no test results. ND indicates disease control not determined due to phytotoxicity. # indicates significant activity.

In experiment [3] the test system is Erysiphe graminis f. sp. tritici. The experiment can be described thus: Test A: wheat powdery mildew, preventive spray on wheat seedlings, disease rating. It counts as in vivo, Erysiphe graminis f. sp. tritici (on wheat seedlings). Particulars: 200 ppm test suspension sprayed to run-off (equivalent to 500 g/ha) on wheat seedlings; 100 = 100% disease control, 0 = no control; # = significant activity.
Description: as §1
The test suspension was sprayed to the point of run-off on wheat seedlings. The following day the seedlings were inoculated with a spore dust of Erysiphe graminis f. sp. tritici, (the causal agent of wheat powdery mildew) and incubated in a growth chamber at 20° C. for 7 days, after which disease ratings were made.
as §2

Experiment [4] deals with Phytophthora infestans. It counts as in vivo, Phytophthora infestans (on tomato seedlings). The settings on record: 200 ppm test suspension sprayed to run-off (equivalent to 500 g/ha) on tomato seedlings; 100 = 100% disease control, 0 = no control; # = significant activity.
Experiment [5] deals with Botrytis cinerea. Put plainly: Test E: gray mold, preventive spray on cucumber seedlings, disease rating. It counts as in vivo, Botrytis cinerea (on cucumber seedlings). Particulars: 200 ppm test suspension sprayed to run-off (equivalent to 500 g/ha) on cucumber seedlings; 100 = 100% disease control, 0 = no control; # = significant activity.
Description: as §1
The test suspension was sprayed to the point of run-off on cucumber seedlings. The following day the seedlings were inoculated with a spore suspension of Botrytis cinerea (the causal agent of gray mold on many crops) and incubated in a saturated atmosphere at 20° C. for 48 h, and moved to a growth chamber at 20° C. for 5 days, after which disease ratings were made.
as §2

[6] abbreviates: 200 ppm test suspension sprayed to run-off (equivalent to 500 g/ha) on rice seedlings.
The mark [7] stands for this setting: Tested at 40 ppm, rice seedlings.

Where two headings read alike, the source gives them in different places.

As to `CC(NC(=O)C1(C(F)(F)F)CC(C)(Cl)C1)c1ccc(Br)cc1` (mixture of isomers) [compound 1], the “Test C disease control rating (rice blast)” value (shortened to “Test C disease control rating”) in experiment [1] (setting [6]) is given as 100# (a rating of 100 indicates 100% disease control).

In the case of `CC(CCc1ccccc1)NC(=O)C1(C(F)(F)F)CC(C)(Cl)C1` (mixture of isomers) [compound 2], the “Test C disease control rating” value in experiment [1] (setting [6]) was 64# %.

For the molecule `CC(NC(=O)C1(C(F)(F)F)CC(C)(Cl)C1)c1ccc(Cl)cc1` (stereo not drawn) [Compound 7], the “Test C disease control rating” value in experiment [1] (setting [6]) is recorded as 100# (a rating of 100 indicates 100% disease control).

Regarding `CC(COc1cc(F)ccc1F)NC(=O)C1(C)CC(C)(Cl)C1` (stereo not drawn) [Compound 30], the “Test C disease control rating” value in experiment [1] (setting [6]) was 100# (a rating of 100 indicates 100% disease control). Besides, the “Test B disease control rating (wheat leaf rust)” value (shortened to “Test B disease control rating”) in experiment [2] is reported as 0 (a rating of 0 indicates no disease control (relative to the controls)). For the same molecule, in experiment [3], the “Test A disease control rating (wheat powdery mildew)” value (shortened to “Test A disease control rating”) is 0 (a rating of 0 indicates no disease control (relative to the controls)). In addition, the “Test D disease control rating (potato and tomato late blight)” value (“Test D disease control rating” for short) in experiment [4] is 0 (a rating of 0 indicates no disease control (relative to the controls)). Also, the “Test E disease control rating (gray mold)” value in experiment [5] is listed as 94# %.

As for `CC(NC(=O)C1(C(F)(F)F)CC(C)(Cl)C1)c1ccc(Br)cc1` (stereo not drawn) [compound 4], the “Test C disease control rating” value in experiment [1] (setting [6]) was 100# (a rating of 100 indicates 100% disease control).

On to `CC(NC(=O)C1(C(F)(F)F)CC(C)(Cl)C1)c1ccc(Br)cc1` (stereo not drawn) [compound 5], for which the “Test C disease control rating” value in experiment [1] (setting [6]) is 100# (a rating of 100 indicates 100% disease control).

For the molecule `CC(NC(=O)C1(C(F)(F)F)CC(C)(Cl)C1)c1ccc(Cl)cc1` (stereo not drawn) [compound 6], in experiment [1] (setting [6]), the “Test C disease control rating” value is 98# %.

As to `CC(NC(=O)C1(C(F)(F)F)CC(C)(Cl)C1)c1ccc(Cl)cc1Cl` (stereo not drawn) [compound 8], in experiment [1] (setting [6]), the “Test C disease control rating” value is recorded as 100# (a rating of 100 indicates 100% disease control). In experiment [2], the “Test B disease control rating” value is on record as 0 (a rating of 0 indicates no disease control (relative to the controls)). For the same molecule, the “Test A disease control rating” value in experiment [3] was 0 (a rating of 0 indicates no disease control (relative to the controls)). For the same molecule, the “Test D disease control rating” value in experiment [4] was determined as 24%. Also, in experiment [5], the “Test E disease control rating (gray mold)” value was 0 (a rating of 0 indicates no disease control (relative to the controls)).

Take `CC(NC(=O)C1(C(F)(F)F)CC(C)(Cl)C1)c1ccc(Cl)cc1Cl` (stereo not drawn) [compound 9]: the “Test C disease control rating” value in experiment [1] (setting [6]) is 100# (a rating of 100 indicates 100% disease control). Besides, in experiment [2], the “Test B disease control rating” value is given as 0 (a rating of 0 indicates no disease control (relative to the controls)). In experiment [3], the “Test A disease control rating” value is on record as 0 (a rating of 0 indicates no disease control (relative to the controls)). For the same molecule, in experiment [4], the “Test D disease control rating” value was 0 (a rating of 0 indicates no disease control (relative to the controls)). For the same molecule, the “Test E disease control rating (gray mold)” value in experiment [5] was 0 (a rating of 0 indicates no disease control (relative to the controls)).

As for `CC(NC(=O)C1CC(C)(Cl)C1)c1ccc(Br)cc1` (stereo not drawn) [compound 10], the “Test C disease control rating” value in experiment [1] (setting [6]) turned out to be 53%. Moreover, the “Test B disease control rating” value in experiment [2] is recorded as 0 (a rating of 0 indicates no disease control (relative to the controls)). The “Test A disease control rating” value in experiment [3] is recorded as 74%. Also, the “Test D disease control rating” value in experiment [4] worked out at 42%. In addition, the “Test E disease control rating (gray mold)” value in experiment [5] was 0 (a rating of 0 indicates no disease control (relative to the controls)).

In the case of `CC(NC(=O)C1CC(C)(Cl)C1)c1ccc(Br)cc1` (stereo not drawn) [compound 11], in experiment [1] (setting [6]), the “Test C disease control rating” value is 53%. In addition, the “Test B disease control rating” value in experiment [2] is 0 (a rating of 0 indicates no disease control (relative to the controls)). The “Test A disease control rating” value in experiment [3] is recorded as 57%. Also, the “Test D disease control rating” value in experiment [4] was 60%. Further, the “Test E disease control rating (gray mold)” value in experiment [5] is 0 (a rating of 0 indicates no disease control (relative to the controls)).

Turning to `CC(NC(=O)C1(Cl)CC(Cl)(Cl)C1)c1ccc(Br)cc1` (stereo not drawn) [compound 12], in experiment [1] (setting [6]), the “Test C disease control rating” value is 100# (a rating of 100 indicates 100% disease control). Besides, the “Test B disease control rating” value in experiment [2] is listed as 0 (a rating of 0 indicates no disease control (relative to the controls)). The “Test A disease control rating” value in experiment [3] was 99%. Besides, the “Test D disease control rating” value in experiment [4] stood at 11%. In addition, the “Test E disease control rating (gray mold)” value in experiment [5] is on record as 0 (a rating of 0 indicates no disease control (relative to the controls)).

As for `CC(NC(=O)C1(C)CC(C)(Cl)C1)c1ccc(Br)cc1` (stereo not drawn) [compound 13], the “Test C disease control rating” value in experiment [1] (setting [6]) is reported as 94# %. Also, the “Test B disease control rating” value in experiment [2] is 0 (a rating of 0 indicates no disease control (relative to the controls)). The “Test A disease control rating” value in experiment [3] was 0 (a rating of 0 indicates no disease control (relative to the controls)). For the same molecule, the “Test D disease control rating” value in experiment [4] was 0 (a rating of 0 indicates no disease control (relative to the controls)). Moreover, the “Test E disease control rating (gray mold)” value in experiment [5] is listed as 0 (a rating of 0 indicates no disease control (relative to the controls)).

In the case of `CC(NC(=O)C1(C)CC(C)(Cl)C1)c1ccc(Br)cc1` (stereo not drawn) [compound 14], the “Test C disease control rating” value in experiment [1] (setting [6]) is given as 97# %. The “Test B disease control rating” value in experiment [2] is on record as 0 (a rating of 0 indicates no disease control (relative to the controls)). Further, in experiment [3], the “Test A disease control rating” value is 0 (a rating of 0 indicates no disease control (relative to the controls)). The “Test D disease control rating” value in experiment [4] is listed as 0 (a rating of 0 indicates no disease control (relative to the controls)). Besides, the “Test E disease control rating (gray mold)” value in experiment [5] was 0 (a rating of 0 indicates no disease control (relative to the controls)).

Turning to `CC(NC(=O)C1(Cl)CC(C)(Cl)C1)c1ccc(Br)cc1` (stereo not drawn) [compound 15], the “Test C disease control rating” value in experiment [1] (setting [7]) is 94#* %.

On to `CC(NC(=O)C1(Cl)CC(C)(Cl)C1)c1ccc(Br)cc1` (stereo not drawn) [compound 16], for which, in experiment [1] (setting [7]), the “Test C disease control rating” value is 98#* %.

With `CC(NC(=O)C1(C)CC(C)(Br)C1)c1ccc(Br)cc1` (stereo not drawn) [compound 17], in experiment [1] (setting [6]), the “Test C disease control rating” value stood at 74%. Also, in experiment [2], the “Test B disease control rating” value is 0 (a rating of 0 indicates no disease control (relative to the controls)). In addition, in experiment [3], the “Test A disease control rating” value is recorded as 0 (a rating of 0 indicates no disease control (relative to the controls)). Also, in experiment [4], the “Test D disease control rating” value is 0 (a rating of 0 indicates no disease control (relative to the controls)). In addition, the “Test E disease control rating (gray mold)” value in experiment [5] is given as 0 (a rating of 0 indicates no disease control (relative to the controls)).

Take `CC(NC(=O)C1(C)CC(C)(Br)C1)c1ccc(Br)cc1` (stereo not drawn) [compound 18]: the “Test C disease control rating” value in experiment [1] (setting [6]) was 99# %. The “Test B disease control rating” value in experiment [2] is on record as 0 (a rating of 0 indicates no disease control (relative to the controls)). The “Test A disease control rating” value in experiment [3] is reported as 0 (a rating of 0 indicates no disease control (relative to the controls)). For the same molecule, in experiment [4], the “Test D disease control rating” value is 0 (a rating of 0 indicates no disease control (relative to the controls)). Also, the “Test E disease control rating (gray mold)” value in experiment [5] was 0 (a rating of 0 indicates no disease control (relative to the controls)).

Regarding `CC(NC(=O)C1(C)CC(C)(Cl)C1)c1ccc(Cl)cc1Cl` (stereo not drawn) [compound 19], the “Test C disease control rating” value in experiment [1] (setting [6]) is on record as 100# (a rating of 100 indicates 100% disease control). The “Test B disease control rating” value in experiment [2] is recorded as 0 (a rating of 0 indicates no disease control (relative to the controls)). Further, the “Test A disease control rating” value in experiment [3] is listed as 33%. Besides, in experiment [4], the “Test D disease control rating” value is 0 (a rating of 0 indicates no disease control (relative to the controls)). Further, the “Test E disease control rating (gray mold)” value in experiment [5] is listed as 0 (a rating of 0 indicates no disease control (relative to the controls)).

For the molecule `CC(COc1ccccc1F)NC(=O)C1(C(F)(F)F)CC(C)(Cl)C1` (stereo not drawn) [compound 25], the “Test C disease control rating” value in experiment [1] (setting [6]) is 97# %.

Regarding `CC(COc1ccccc1F)NC(=O)C1(C(F)(F)F)CC(C)(Cl)C1` (stereo not drawn) [compound 26], in experiment [1] (setting [6]), the “Test C disease control rating” value is 100# (a rating of 100 indicates 100% disease control).

In the case of “(R)-N-[1-(4-bromophenyl)ethyl]-3,3-difluoro-1-methylcyclobutanecarboxamide [Example 3]”, the “Test C disease control rating” value in experiment [1] (setting [6]) is 82# %.
